Laboratory results reported in patent publication US20250188143A1, “COMBINED GENE AND RADIO THERAPY FOR THE TREATMENT OF CANCER” (FUNDACION PARA LA INVESTIGACION MEDICA APLICADA, priority 2022, published 2025).
Read-outs that look alike come from different tables or passages of the source.

Experiments:
[1] = target: T1, hSTINGmut (Homo sapiens, UniProt Q86WV6, G230I/H232R/Q266I/S162A); assay: DMXAA mediated expression of STING-derived cytokines (qPCR); format: cell-based; details: hSTINGmut-transduced MC38 and Hep2G cells; 50 μg/mL DMXAA, 3 h or 6 h
T1 construct: expressed in transfected cells
Experimental: (§1) As a readout, the expression of STING-derived cytokines was measured by qPCR.
(§2) To this end, MC38 and Hep2G cells have been transduced with lentiviruses encoding luciferase, hSTINGwt, hSTINGmut to obtain stable cell lines as described above or were not transduced with any lentivirus (no vector). Respective cells were seeded in 24-well plates at a density of 750 cells/mm^2 in growth medium. […] Cells were harvested and prepared for qPCR measurements as described above. The expression of the cytokines IFN-β, TNF-α, IL-6, CXCL9 and CXCL10 were measured for either experimental group and expression levels relative to controls (no vector) were quantified.

[2] = target: T2, hSTINGwt (Homo sapiens, UniProt Q86WV6, H232R); assay: as above; format: cell-based; details: other groups (luciferase, hSTINGwt, no vector); 50 μg/mL DMXAA
T2 construct: expressed in transfected cells
Experimental: as §1, §2

[3] = target: T1, hSTINGmut; assay: Time-course expression of STING-derived cytokines upon DMXAA treatment; format: cell-based; details: MC38 and Hep2G cells encoding hSTINGmut; 50 μg/mL DMXAA; any given timepoint
Experimental: The objective of this experiment was to examine the time-course of STING-derived cytokine expression upon DMXAA treatment. As a readout, the expression of STING-derived cytokines was measured by qPCR.
To this end, stable cell lines of MC38 and Hep2G cells encoding hSTINGmut have been obtained as described above. […] Cells were harvested and prepared for qPCR measurements as described above.

[4] = system: STING
Experimental: C57 wild type mice, aged 6 to 10 weeks, were injected intravenously with an AAV8 vector encoding either hSTINGmut (AAV8-hSTINGmut, 1×10^11 viral genomes) or as a control GFP (AAV8-GFP, 1.5×10^11 viral genomes).

[5] = system: MC38 cells; assay: Synergism proof of principle I, IFN-β mRNA; format: cell-based, murine
Experimental: To this end, MC38 cells received 8 Gy or 0 Gy as described above (example 7). Cells were seeded thereafter at 750 cells/mm^2 density and were then either mock-transduced or transduced with AAV8-hSTINGmut (1×10^5 viral genomes/cell). For cell transduction 8.5×10^9 viral genomes of AAV8-hSTINGmut from known concentration stock solutions, were resuspended in 50 μl RPMI 2% FBS. The resuspended viral particles were then added to the wells where the cells were seeded.

[6] = system: MC38 cells; assay: Synergism proof of principle II, IL-12 mRNA; format: cell-based, murine; details: cells transduced with AAV8-hSTINGmut plus AAV8-ISREx4-IL12miR122T
Experimental: […] The resuspended viral particles were then added to the wells where the cells were seeded. […] The IL-12 mRNA was determined by qPCR as described above (example 3) and expression levels were quantified in reference to non-transduced, non-irradiated cells treated with vehicle.

[7] = system: HEK293 cells; assay: Synergism proof of principle III, IFN-β and IL-12 mRNA; format: cell-based, human; details: for IFN-β expression levels: hSTINGmut expressing HEK293 cells
Experimental: The IFN-β and the IL-12 mRNA expression levels were determined by qPCR as described above (example 1) and expression levels were quantified in reference to the indicated controls.

[8] = system: native non-transduced MC38 cells; assay: Synergism proof of principle IV, IFN-β protein; format: cell-based, murine
Description: To this end, native non-transduced MC38 cells received 0 Gy, 2 Gy or 8 Gy as described above.

[9] = system: MC38 tumors; assay: Synergism of DMXAA and radiotherapy in a humanized mouse model in vivo, cytokine levels; parameters: species or system STING KO mice; details: tumor extracts 6 h after DMXAA 20 mg/kg; irradiated
[10] = human, in vivo; cited from earlier work
[11] = target: human STING (Homo sapiens, UniProt Q86WV6, H232R); details: cited from earlier work
[12] = target: hSTING[R]-S162A/G230I/Q266I (Homo sapiens, UniProt Q86WV6, G230I/H232R/Q266I/S162A); details: cited from earlier work
[13] = system: established tumors; details: intratumor injections; STING-dependent; cited from earlier work
[14] = 5 or 10 mg DMXAA/kg, AAV8-hSTINGmut transduced mice

T1 sequence (Q86WV6 whole entry S162A/G230I/H232R/Q266I): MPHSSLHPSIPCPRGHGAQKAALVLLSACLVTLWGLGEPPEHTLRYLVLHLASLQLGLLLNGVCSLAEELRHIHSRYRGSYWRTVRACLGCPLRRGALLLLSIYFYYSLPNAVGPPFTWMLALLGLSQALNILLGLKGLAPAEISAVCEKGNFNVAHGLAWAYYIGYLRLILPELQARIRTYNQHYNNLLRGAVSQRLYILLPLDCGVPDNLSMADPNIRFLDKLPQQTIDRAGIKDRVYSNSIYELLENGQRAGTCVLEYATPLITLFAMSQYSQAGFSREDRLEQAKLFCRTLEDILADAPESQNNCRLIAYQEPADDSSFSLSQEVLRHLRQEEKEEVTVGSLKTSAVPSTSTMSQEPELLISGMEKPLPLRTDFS
hSTING[R]-S162A/G230I/Q266I, sequence (Q86WV6 whole entry S162A/G230I/H232R/Q266I): as above
human STING, sequence (Q86WV6 whole entry H232R): as the sequence (Q86WV6 whole entry S162A/G230I/H232R/Q266I) above, with A162S, I230G, I266Q counted along it
T2 sequence (Q86WV6 whole entry H232R): as the sequence (Q86WV6 whole entry S162A/G230I/H232R/Q266I) above, with A162S, I230G, I266Q counted along it

## Cc1ccc2c(=O)c3cccc(CC(=O)O)c3oc2c1C [DMXAA, 5,6-Dimethylxanthenone-4-acetic acid]
[1]
  expression of cytokines IFN-β, TNF-α, IL-6, CXCL9 and CXCL10: elevated
[2]
  expression of cytokines IFN-β, TNF-α, IL-6, CXCL9 and CXCL10: no significant alteration
[3]
  time-course of STING-derived cytokine expression: increase in expression levels
[4]; 20 mg DMXAA/kg i.p., AAV8-GFP transduced control animals, 3 h after injection
  IFN-β levels in serum: elevation of IFN-β levels
[4]; 20 mg DMXAA/kg repeated, AAV8-GFP and AAV8-hSTINGmut mice (systemic STING stimulation)
  toxicity and mortality: high toxicity and mortality
[4]; [14]
  IFN-β levels in serum: only very low levels
  toxicity and mortality: neither cause significant toxicity nor mortality
[5]; hSTINGmut-transduced MC38, 8 Gy, DMXAA 50 μg/mL 6 h
  IFN-β mRNA expression: further increased
[5]; hSTINGmut-transduced MC38, no irradiation, DMXAA
  IFN-β mRNA expression: intermediate expression
[5]; non-transduced MC38, 8 Gy, DMXAA 50 μg/mL 6 h
  IFN-β mRNA expression: increase in IFN-β expression
[6]; irradiated with 8 Gy
  IL-12 mRNA levels: strong elevation
[6]; non-irradiated
  IL-12 mRNA levels: slight elevation
[7]; HEK293 cells expressing ISREx4-IL12miR122T, radiation and further DMXAA treatment
  IL-12 expression levels: significant increase in IL-12 expression levels
[7]; DMXAA 50 μg/mL
  IFN-β expression levels: upregulated
[7]; DMXAA plus additional irradiation 8 Gy
  IFN-β expression levels: significantly increased
[8]; 8 Gy plus DMXAA at different doses, 24 h or 48 h
  IFN-β production (ELISA): exceeding the sum of those obtained with radiation alone and DMXAA alone
[8]; single dose 8 Gy, DMXAA 50 μg/mL 24 h later, collected after another 24 h
  IFN-β production (ELISA): enhanced
[9]
  intratumor levels of IL-12: increased significantly
[10]
  efficacy in clinical trials: lack of efficacy
  tolerability in clinical trials: well tolerated and only displayed minor side effects
[11]
  activation of human STING: unable to activate
[12]
  activation of hSTING[R]-S162A/G230I/Q266I: highly activated
[13]
  CD8+ T cell priming and tumor elimination: effectively prime CD8+ T cell responses and promote elimination of the established tumors
